Like-named read-outs stand apart in the source and are kept apart here.
Assays:
[1] = molecular target: T1, IKZF2 (Homo sapiens (Human), UniProt Q96SW2+Q9UKS7); assay: IKZF2 HiBit Assay (HEK293T Flp-in-HiBiT cells); assay type: cell-based; conditions: for DC50: read-out: IKZF2 HiBit degradation DC50; for Dmax: HEK-293T, read-out: IKZF2 HiBit degradation Dmax
Method in brief: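 HEK293T Flp-in cells carrying CRISPR-inserted N-terminal HiBiT tag at the endogenous IKZF2 locus were treated with an 11-point, 3-fold dilution from 1 mM (stock) for 6 hrs; final DMSO 0.1%. HiBiT luminescence was detected after lysis with LgBiT/substrate reagent. DMSO-normalized curves gave 50% degradation concentration and Dmax.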

[2] = molecular target: T1, IKZF2; assay: IKZF2 FACS Assay (Jurkat cells); assay type: cell-based; conditions: read-out: IKZF2 FACS degradation Dmax
Protocol: (§1) Jurkat cells (ATCC, Cat […]) were cultured in RPMI1640+10% FBS+1% P/S. Cells were treated at desired compound concentrations (0.05 to 10 μM) and DMSO as vehicle control for 24 hrs.

[3] = molecular target: IKZF2 (Homo sapiens (Human), UniProt Q9UKS7); assay: IKZF2 FACS Assay (Jurkat cells); assay type: cell-based; conditions: Jurkat cells, 24 hrs; read-out: IKZF2 FACS degradation DC50
Protocol: as §1

[4] = molecular target: IKZF1 (Homo sapiens (Human), UniProt Q13422+Q96SW2); assay: IKZF1 HiBit Assay (HEK293T Flp-in-HiBiT-IKZF1 stable cell line); assay type: cell-based; conditions: for DC50: read-out: IKZF1 HiBit degradation DC50; for Dmax: HEK-293T, read-out: IKZF1 HiBit degradation Dmax
Method in brief: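 HEK293T Flp-in cells with CRISPR-inserted N-terminal HiBiT tag treated 6 h with 11-point threefold dilutions (0.1% DMSO). Nano-Glo HiBiT lytic luminescence normalised to DMSO gave the 50%-degradation concentration; Dmax taken as the luminescence range from highest to lowest concentration.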

[5] = molecular target: His tagged CRBN+DDB−DLS7+CXU4 (Homo sapiens (Human), UniProt Q96SW2); assay: IC50 Measurements for Binding to CRBN/DDBI (HTRF); conditions: Cy5-labeled Thalidomide probe, one hour incubation
[6] = molecular target: GST-tagged wild-type human CRBN protein (Homo sapiens (Human), UniProt Q96SW2); assay: Cereblon Binding Assay (Cisbio Cereblon Binding Kit, TR-FRET); conditions: about 3 hours at room temperature
Protocol: (§2) The binding to cereblon (CRBN) is determined using the Cereblon Binding Kit (Cisbio, #64BDCRBNPEG) following the manufacturer's instruction. Briefly, serially diluted compounds are incubated with GST-tagged wild-type human CRBN protein, XL665-labelled Thalidomide and Europium Cryptate labelled GST antibody.
as §2, with “(CRBN) was” for “(CRBN) is”, “compounds were” for “compounds are”, “GST antibody at room temperature for about 3 hours.” for “GST antibody.”

[7] = molecular target: T1, IKZF2; assay: IKZF2 HiBiT Assay (Jurkat-IKZF2-HiBiT cell line); assay type: cell-based; conditions: Jurkat-IKZF2-HiBiT cells, 24 hours; for DC50: read-out: HiBit assay degradation analysis DC50; for Dmax: read-out: HiBit assay degradation analysis Dmax
Method in brief: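 Jurkat cells carrying HiBiT-tagged IKZF2 were exposed to serially diluted compound for 24 h at 37 °C. Remaining IKZF2 was measured by Nano-Glo HiBiT lytic luminescence after 10-20 min at room temperature. Signal was normalized to DMSO, and IC50 came from a four-parameter variable-slope fit.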

[8] = HEK293T Flp-in-HiBiT cells, 6 hrs
[9] = HEK293T Flp-in-HiBiT-IKZF1 cells, 6 hrs

Sequence of IKZF2 (Homo sapiens (Human), UniProt Q9UKS7) (Q9UKS7 whole entry): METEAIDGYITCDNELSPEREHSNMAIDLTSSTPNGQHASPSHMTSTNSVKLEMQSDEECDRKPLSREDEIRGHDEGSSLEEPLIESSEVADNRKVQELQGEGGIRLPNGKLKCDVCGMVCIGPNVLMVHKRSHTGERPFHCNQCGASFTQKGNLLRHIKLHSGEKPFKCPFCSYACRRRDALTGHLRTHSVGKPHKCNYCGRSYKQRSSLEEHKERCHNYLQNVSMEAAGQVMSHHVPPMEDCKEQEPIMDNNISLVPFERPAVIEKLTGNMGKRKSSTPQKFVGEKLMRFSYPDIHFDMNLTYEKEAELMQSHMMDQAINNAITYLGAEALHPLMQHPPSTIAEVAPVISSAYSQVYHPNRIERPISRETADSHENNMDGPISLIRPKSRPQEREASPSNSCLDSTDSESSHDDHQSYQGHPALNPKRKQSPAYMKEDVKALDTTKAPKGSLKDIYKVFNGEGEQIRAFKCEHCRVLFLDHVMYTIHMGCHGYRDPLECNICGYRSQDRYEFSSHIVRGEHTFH
Sequence of IKZF2 (Homo sapiens (Human), UniProt Q9UKS7) (Q96SW2 whole entry, further chain): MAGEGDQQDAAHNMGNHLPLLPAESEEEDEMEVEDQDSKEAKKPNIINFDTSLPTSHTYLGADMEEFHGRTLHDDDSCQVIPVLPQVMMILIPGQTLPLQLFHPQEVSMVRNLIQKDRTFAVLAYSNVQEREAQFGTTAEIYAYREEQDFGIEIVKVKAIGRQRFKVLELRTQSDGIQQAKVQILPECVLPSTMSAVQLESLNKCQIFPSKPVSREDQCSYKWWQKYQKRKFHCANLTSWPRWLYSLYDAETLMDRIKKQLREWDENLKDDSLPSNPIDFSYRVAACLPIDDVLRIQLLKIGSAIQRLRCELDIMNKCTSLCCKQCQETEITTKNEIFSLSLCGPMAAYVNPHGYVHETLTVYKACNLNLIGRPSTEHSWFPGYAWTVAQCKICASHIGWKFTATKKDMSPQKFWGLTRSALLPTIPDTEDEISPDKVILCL
Sequence of IKZF2 (Homo sapiens (Human), UniProt Q9UKS7) (Q16531 whole entry partner): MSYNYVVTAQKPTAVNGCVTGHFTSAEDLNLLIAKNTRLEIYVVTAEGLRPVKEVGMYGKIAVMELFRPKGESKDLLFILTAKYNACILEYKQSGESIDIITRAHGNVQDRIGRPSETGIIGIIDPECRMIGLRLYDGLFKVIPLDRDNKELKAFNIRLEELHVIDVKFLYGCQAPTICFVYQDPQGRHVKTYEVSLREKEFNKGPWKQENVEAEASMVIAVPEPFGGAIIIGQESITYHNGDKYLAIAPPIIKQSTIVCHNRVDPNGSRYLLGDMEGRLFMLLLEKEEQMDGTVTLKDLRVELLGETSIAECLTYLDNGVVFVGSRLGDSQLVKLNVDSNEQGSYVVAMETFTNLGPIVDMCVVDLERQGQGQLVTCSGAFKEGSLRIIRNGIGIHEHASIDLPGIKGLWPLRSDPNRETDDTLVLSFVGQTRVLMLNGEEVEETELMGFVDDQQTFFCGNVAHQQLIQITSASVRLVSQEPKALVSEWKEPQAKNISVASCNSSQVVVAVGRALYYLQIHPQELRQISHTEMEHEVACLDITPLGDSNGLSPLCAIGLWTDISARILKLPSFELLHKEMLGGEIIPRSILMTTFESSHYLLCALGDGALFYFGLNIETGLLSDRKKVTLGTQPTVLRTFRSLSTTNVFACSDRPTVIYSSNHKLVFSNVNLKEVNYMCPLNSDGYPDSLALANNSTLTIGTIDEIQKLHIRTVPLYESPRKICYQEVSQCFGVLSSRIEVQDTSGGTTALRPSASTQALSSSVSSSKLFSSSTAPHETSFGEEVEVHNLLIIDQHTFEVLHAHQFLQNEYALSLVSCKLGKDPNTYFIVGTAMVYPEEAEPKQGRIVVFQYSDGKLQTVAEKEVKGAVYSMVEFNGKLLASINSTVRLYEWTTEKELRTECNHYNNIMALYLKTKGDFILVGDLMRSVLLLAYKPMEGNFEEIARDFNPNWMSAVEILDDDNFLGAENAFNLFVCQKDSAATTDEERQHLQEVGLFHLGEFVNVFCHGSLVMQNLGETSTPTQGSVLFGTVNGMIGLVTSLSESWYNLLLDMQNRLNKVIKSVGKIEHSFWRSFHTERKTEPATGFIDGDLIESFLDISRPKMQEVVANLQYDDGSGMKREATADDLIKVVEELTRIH
T1 sequence (Q9UKS7 whole entry): as the sequence (Q9UKS7 whole entry) above
T1 sequence (Q96SW2 whole entry): as the sequence (Q96SW2 whole entry, further chain) above
T1 sequence (Q16531 whole entry partner): as the sequence (Q16531 whole entry partner) above
Sequence of His tagged CRBN+DDB−DLS7+CXU4 (Q96SW2 whole entry): as the sequence (Q96SW2 whole entry, further chain) above
Sequence of His tagged CRBN+DDB−DLS7+CXU4 (Q16531 whole entry partner): as the sequence (Q16531 whole entry partner) above
Sequence of IKZF1 (Q13422 whole entry): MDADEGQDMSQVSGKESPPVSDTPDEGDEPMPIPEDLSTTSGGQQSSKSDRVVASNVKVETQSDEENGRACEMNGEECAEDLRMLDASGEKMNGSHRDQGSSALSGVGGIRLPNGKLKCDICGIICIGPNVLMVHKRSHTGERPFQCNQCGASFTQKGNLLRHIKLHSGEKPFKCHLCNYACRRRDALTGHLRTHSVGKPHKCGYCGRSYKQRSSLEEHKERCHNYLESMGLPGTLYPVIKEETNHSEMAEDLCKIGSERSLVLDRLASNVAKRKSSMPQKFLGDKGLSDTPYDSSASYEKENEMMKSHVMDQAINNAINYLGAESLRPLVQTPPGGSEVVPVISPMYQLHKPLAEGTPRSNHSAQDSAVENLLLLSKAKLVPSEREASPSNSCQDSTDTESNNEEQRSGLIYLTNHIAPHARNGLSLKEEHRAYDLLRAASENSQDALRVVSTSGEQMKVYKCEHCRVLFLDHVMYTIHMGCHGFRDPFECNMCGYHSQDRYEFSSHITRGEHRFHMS
Sequence of IKZF1 (Q96SW2 whole entry): as the sequence (Q96SW2 whole entry, further chain) above
Sequence of IKZF1 (Q16531 whole entry partner): as the sequence (Q16531 whole entry partner) above
Sequence of GST-tagged wild-type human CRBN protein (Q96SW2 whole entry): as the sequence (Q96SW2 whole entry, further chain) above

Structure (SMILES) | DC50 [1, 8] [nM] | Dmax [1, 8] [%] | Dmax ([2]; Jurkat cells, 24 hrs) [%] | DC50 [3] [nM] | DC50 [4, 9] [nM] | Dmax [4, 9] [%] | Dmax [1] [%] | IC50 [5] [nM] | Dmax ([2]; Jurkat) [%] | Dmax [4] [%] | IC50 [6] [nM] | DC50 [7] [nM] | Dmax [7] [%]
O=C1CC[C@H](N2Cc3c(ccc4c3OC[C@]43CCN(Cc4cccc(-c5cnn(C6COC6)c5)c4)CC3(F)F)C2=O)C(=O)N1 [Compound B53, (S)-3-((S)-3′,3′-difluoro-1′-(3-(1-(oxetan-3-yl)-1H-pyrazol-4-yl)benzyl)-6-oxo-6,8-dihydro-2H,7H-spiro[furo[2,3-e]isoindole-3,4′-piperidin]-7-yl)piperidine-2,6-dione] | < 1 | > 80 | 40 to 60 | < 10 | > 1000 | < 20 |  |  |  |  |  |  | 
Cn1cc(-c2cccc(CN3CCC4(CC3)COc3c5c(cc(F)c34)C(=O)N([C@H]3CCC(=O)NC3=O)C5)c2)cn1 [Compound B55, (S)-3-(4-fluoro-1′-(3-(1-methyl-1H-pyrazol-4-yl)benzyl)-6-oxo-6,8-dihydro-2H,7H-spiro[furo[2,3-e]isoindole-3,4′-piperidin]-7-yl)piperidine-2,6-dione] | < 1 | > 80 | 40 to 60 | < 10 | > 1000 | < 20 |  |  |  |  |  |  | 
N#Cc1ccc(-n2cc(CN3CCC4(COc5c4ccc4c5CN([C@H]5CCC(=O)NC5=O)C4=O)C(F)(F)C3)cn2)cc1 (stereo partly drawn) [Compound B27, 4-(4-((7-((S)-2,6-dioxopiperidin-3-yl)-3′,3′-difluoro-6-oxo-7,8-dihydro-2H,6H-spiro[furo[2,3-e]isoindole-3,4′-piperidin]-1′-yl)methyl)-1H-pyrazol-1-yl)benzonitrile] | 1 to 10 | 60 to 80 | < 40 | > 10 | > 1000 | < 20 |  |  |  |  |  |  | 
Cn1cc(-c2cccc(CN3CCC4(CC3)COc3c4ccc4c3CN([C@@H]3CCC(=O)NC3=O)C4=O)c2)cn1 [Compound B14, (R)-3-(1′-(3-(1-methyl-1H-pyrazol-4-yl)benzyl)-6-oxo-6,8-dihydro-2H,7H-spiro[furo[2,3-e]isoindole-3,4′-piperidin]-7-yl)piperidine-2,6-dione] | 1 to 10 |  |  | > 10 | > 1000 |  | > 80 | 1000 to 5000 | 40 to 60 | < 20 |  |  | 
Cn1cc(-c2cccc(CN3CCC4(COc5c4ccc4c5CN(C5CCC(=O)NC5=O)C4=O)C(F)(F)C3)c2)cn1 (stereo not drawn) [Compound B26, 3-(3′,3′-difluoro-1′-(3-(1-methyl-1H-pyrazol-4-yl)benzyl)-6-oxo-6,8-dihydro-2H,7H-spiro[furo[2,3-e]isoindole-3,4′-piperidin]-7-yl)piperidine-2,6-dione] | 1 to 10 | > 80 | > 60 | < 10 | > 1000 | < 20 |  |  |  |  |  |  | 
Cn1cc(-c2cccc(CN3CC[C@]4(COc5c4ccc4c5CN([C@H]5CCC(=O)NC5=O)C4=O)C(F)(F)C3)c2)cn1 [Compound B51, (S)-3-((S)-3′,3′-difluoro-1′-(3-(1-methyl-1H-pyrazol-4-yl)benzyl)-6-oxo-6,8-dihydro-2H,7H-spiro[furo[2,3-e]isoindole-3,4′-piperidin]-7-yl) piperidine-2,6-dione] | < 1 | 60 to 80 | > 60 | < 10 | > 1000 | < 20 |  | < 100 |  |  |  |  | 
O=C1CC[C@H](N2Cc3c(ccc4c3OCC43CCN(Cc4cnn(CC5CCOCC5)c4)CC3(F)F)C2=O)C(=O)N1 (stereo partly drawn) [Compound B46, (3S)-3-(3′,3′-difluoro-6-oxo-1′-((1-((tetrahydro-2H-pyran-4-yl)methyl)-1H-pyrazol-4-yl)methyl)-6,8-dihydro-2H,7H-spiro[furo[2,3-e]isoindole-3,4′-piperidin]-7-yl)piperidine-2,6-dione] | 1 to 10 | 60 to 80 | 40 to 60 | < 10 | > 1000 | < 20 |  |  |  |  |  |  | 
O=C1CC[C@H](N2Cc3c(ccc4c3OCC43CCN(Cc4cccc(-c5cnn(C6COC6)c5)c4)CC3(F)F)C2=O)C(=O)N1 (stereo partly drawn) [Compound B32, (3S)-3-(3′,3′-difluoro-1′-(3-(1-(oxetan-3-yl)-1H-pyrazol-4-yl)benzyl)-6-oxo-6,8-dihydro-2H,7H-spiro[furo[2,3-e]isoindole-3,4′-piperidin]-7-yl)piperidine-2,6-dione] | < 1 | 60 to 80 | 40 to 60 | < 10 | > 1000 | < 20 |  | 100 to 500 |  |  |  |  | 
Cc1ccc(CN2CCC3(CCOc4c3ccc3c4CN(C4CCC(=O)NC4=O)C3=O)CC2)cc1 (stereo not drawn) [Compound A12, 3-(1-(4-methylbenzyl)-7′-oxo-2′,3′,7′,9′-tetrahydro-8′H-spiro[piperidine-4,4′-pyrano[2,3-e]isoindol]-8′-yl)piperidine-2,6-dione] |  |  |  |  |  |  |  |  |  |  | 10 to 100 | > 500 | < 40
O=C1CCC(N2Cc3c(ccc4c3OCC43CCN(Cc4cc(Br)cc5[nH]ncc45)CC3)C2=O)C(=O)N1 (stereo not drawn) [Compound A127, 3-(1′-((6-bromo-1H-indazol-4-yl)methyl)-6-oxo-6,8-dihydro-2H,7H-spiro[furo[2,3-e]isoindole-3,4′-piperidin]-7-yl)piperidine-2,6-dione] |  |  |  |  |  |  |  |  |  |  | 100 to 1000 | < 50 | 40 to 60

From patent publication US20250215012A1, “IKZF2 DEGRADERS AND USES THEREOF” (REGENTS OF THE UNIVERSITY OF MICHIGAN, priority 2022, published 2025)
